Results taken from US8394967B2, “Antioxidant inflammation modulators: C-17 homologated oleanolic acid derivatives” (Reata Pharmaceuticals, Inc., priority 2008, dated 2013).

Tests used:
[1] = tested on: NO production in RAW264.7 macrophages; assay: Inhibition of NO production in IFNγ-treated RAW264.7 macrophages (Griess reagent); assay type: cell-based, mouse; conditions: Mus musculus, RAW264.7, RAW264.7 macrophages pre-treated 2 hours, then 20 ng/ml IFNγ for 24 hours
Method: (§1) FIGS. 1-4, 6 and 8. Inhibition of NO Production. RAW264.7 macrophages were pre-treated with DMSO or drugs at various concentrations (nM) for 2 hours, then treated with 20 ng/ml IFNγ for 24 hours. NO concentration in media was determined using a Griess reagent system; cell viability was determined using WST-1 reagent.
(§2) Nitric Oxide production and cell viability. RAW264.7 macrophages were pre-treated with DMSO or drugs for 2 hours, then treated with recombinant mouse IFNγ (Sigma) for 24 hours. NO concentration in media was determined using the Griess reagent system (Promega). Cell viability was determined using WST-1 reagent (Roche).

RAW264.7 macrophages = assay: Cell viability of RAW264.7 macrophages (WST-1 reagent); assay type: cell-based, mouse; conditions: Mus musculus, RAW264.7, 24 h, cell viability, RAW264.7, 20 ng/ml IFNγ 24 hours, WST-1 reagent; read-out: RAW264.7 (20 ng/ml IFNγ) WST-1 IC50
Method: as §1, §2

HO-1 = assay: Nrf2 target gene induction, MDA-MB-435 (qPCR): HO-1; assay type: cell-based; conditions: Homo sapiens; MDA-MB-435, 250 nM, 16 hours, mRNA by qPCR
Method: (§3) Nrf2 target gene induction. MDA-MB-435 human melanoma cells were treated with vehicle (DMSO) or the indicated compounds and concentrations for 16 hours. HO-1, thioredoxin reductase-1 (TrxR1), γ-glutamylcysteine synthetase (γ-GCS), and ferritin heavy chain mRNA levels were quantified using qPCR and were normalized relative to a DMSO-treated sample run in parallel. Values are averages of duplicate wells. Primer sequences are as follows.

NQO1 = assay: Nrf2 target gene induction, MDA-MB-435 (qPCR): NQO1; assay type: cell-based; conditions: Homo sapiens; MDA-MB-435, 250 nM, 16 hours, mRNA by qPCR
γ-GCS = assay: Nrf2 target gene induction, MDA-MB-435 (qPCR): γ-GCS; assay type: cell-based; conditions: Homo sapiens; MDA-MB-435, 250 nM, 16 hours, mRNA by qPCR
Method: as §3

[2] = Aqueous solubility determination (Millipore Multiscreen solubility filter plate, UV/vis); assay type: physicochemical; conditions: Universal Aqueous Buffer pH 7.4, 90 minutes at room temperature
Method: Aqueous Solubility Determination. The following procedure was used to obtain the aqueous solubility results summarized in Example 4. Step 1. Determination of optimal UV/vis wavelengths and generation of standard curves for a compound of interest: • (1) For eight standard calibration curves (one plate), prepare 34 mL of 50:50 (v:v) universal buffer:acetonitrile in a 50 mL tube. • (2) Using a multichannel pipet, dispense (in μL) the buffer:acetonitrile in a deep well plate as follows:
• (6) Cover plate with lid and shake (200-300 rpm) at room temperature for 20 minutes. • (7) Mix all wells by pipetting up and down 10 times. • (8) Transfer 120 μL from each well to a UV transparent plate. Cover and shake for 3-5 minutes. Remove any bubbles in the wells using a pipet. • (9) Read from 220 nm to 500 nm at 10 nm increments on a spectrophotometer (e.g., SpectraMax®).
Step 2. […]
Solubility Protocol: • (a) Add 285 μL of Universal Aqueous Buffer to desired wells of the Millipore™ Multiscreen® Solubility filter plate. • (b) Add 15 μL of 10 mM compound in DMSO to the appropriate wells. […] Remove any bubbles with a pipet. • (i) Measure the absorbance of each well in the plate on the spectrophotometer (UV/vis) at the desired wavelength. […]
The aqueous solubility of the compounds shown here was determined using the procedures outlined in Example 1.

[3] = TP levels in mouse brain after feeding in diet (LC/MS); assay type: in vivo; conditions: CD-1 mice fed 200 or 400 mg/kg diet for 3.5 days
Method: FIG. 7. […] CD-1 mice were fed either 200 or 400 mg/kg diet of either TP-319 or TP-500 for 3.5 days, and TP levels in the brains of the mice were analyzed by LC/MS. The structures of TP-319 and TP-500 are shown herein.

SMILES | IC50 [1] [nM] | Aqueous Solubility [2] [µM] | IC50 (RAW264.7 macrophages) [nM] | fold induction at 0.25 µM (HO-1) | fold induction at 0.25 µM (NQO1) | fold induction at 0.25 µM (γ-GCS) | TP levels in the brains of the mice [3]
Cc1cc(CNC[C@]23CCC(C)(C)C[C@H]2[C@H]2C(=O)C[C@@H]4[C@@]5(C)C=C(C#N)C(=O)C(C)(C)[C@@H]5CC[C@@]4(C)[C@]2(C)CC3)no1 [Compound 63232, (4aR,6aR,6bR,8aS,12aS,12bR,14aR,14bR)-4,4,6a,6b,11,11,14b-heptamethyl-8a-(((5-methylisoxazol-3-yl)methylamino)methyl)-3,13-dioxo-3,4,4a,5,6,6a,6b,7,8,8a,9,10,11,12,12a,12b,13,14,14a,14b-icosahydropicene-2-carbonitrile] | ~20 | – | > 200 | 5 | 3.8 | 13.6 | –
CC1(C)CC[C@]2(N)CC[C@]3(C)[C@H](C(=O)C[C@@H]4[C@@]5(C)C=C(C#N)C(=O)C(C)(C)[C@@H]5CC[C@]43C)[C@@H]2C1 [Compound 63208] | – | 9.49 | – | – | – | – | –
CC1(C)CC[C@@]23CC[C@@]4(C)[C@]5(C)CC[C@H]6C(C)(C)C(=O)C(C#N)=C[C@]6(C)[C@H]5CC(=O)[C@]4(OC2CO)[C@@H]3C1 (stereo partly drawn) [Compound 63224] | ~20 | – | > 200 | 4 | 2.5 | 8 | –
CC1(C)CC[C@]2(N)CC[C@]3(C)[C@H](C(=O)C[C@@H]4[C@@]5(C)C=C(C#N)C(=O)C(C)(C)[C@@H]5CC[C@]43C)[C@@H]2C1 [Compound 63198] | – | 163.6 | – | – | – | – | –
CC1(C)CC[C@]2(C(=O)NCC(F)(F)F)CC[C@]3(C)[C@H](C(=O)C=C4[C@@]5(C)C=C(C#N)C(=O)C(C)(C)[C@@H]5CC[C@]43C)[C@@H]2C1 [TP-500] | – | – | – | – | – | – | Higher Levels in Mouse Brain than CDDO-EA (TP-319)
CC1(C)CC[C@]2([C@@H](O)CO)CC[C@]3(C)[C@H](C(=O)C[C@@H]4[C@@]5(C)C=C(C#N)C(=O)C(C)(C)[C@@H]5CC[C@]43C)[C@@H]2C1 [Compound 63221, (4aR,6aR,6bR,8aS,12aS,12bR,14aR,14bR)-8a-((R)-1,2-dihydroxyethyl)-4,4,6a,6b,11,11,14b-heptamethyl-3,13-dioxo-3,4,4a,5,6,6a,6b,7,8,8a,9,10,11,12,12a,12b,13,14,14a,14b-icosahydropicene-2-carbonitrile] | ~15 | – | > 200 | 2 | 2 | 4.5 | –

Further lines, with some results ahead:

IC50 [1] [nM] | Aqueous Solubility [2] [µM] | SMILES | IC50 (RAW264.7 macrophages) [nM] | fold induction at 0.25 µM (HO-1) | fold induction at 0.25 µM (NQO1) | fold induction at 0.25 µM (γ-GCS) | TP levels in the brains of the mice [3]
~15 | – | CC1(C)CC[C@]2(CNS(C)(=O)=O)CC[C@]3(C)[C@H](C(=O)CC4[C@@]5(C)C=C(C#N)C(=O)C(C)(C)C5CC[C@]43C)[C@@H]2C1 (stereo partly drawn) [Compound 63220, N-(((4aS,6aR,6bR,12aR,14aR,14bS)-11-cyano-2,2,6a,6b,9,9,12a-heptamethyl-10,14-dioxo-1,2,3,4,4a,5,6,6a,6b,7,8,8a,9,10,12a,12b,13,14,14a,14b-icosahydropicen-4a-yl)methyl)methanesulfonamide] | > 200 | 3 | 2 | 6 | –
~25 | – | CC1(C)CC[C@]2(CNCC#N)CC[C@]3(C)[C@H](C(=O)C[C@@H]4[C@@]5(C)C=C(C#N)C(=O)C(C)(C)[C@@H]5CC[C@]43C)[C@@H]2C1 [Compound 63218, (4aR,6aR,6bR,8aS,12aS,12bR,14aR,14bR)-8a-((cyanomethylamino)methyl)-4,4,6a,6b,11,11,14b-heptamethyl-3,13-dioxo-3,4,4a,5,6,6a,6b,7,8,8a,9,10,11,12,12a,12b,13,14,14a,14b-icosahydropicene-2-carbonitrile] | > 200 | 3 | 3.4 | 10 | –
~20 | – | CC1(C)CC[C@]2(CNS(=O)(=O)CC(F)(F)F)CC[C@]3(C)[C@H](C(=O)C[C@@H]4[C@@]5(C)C=C(C#N)C(=O)C(C)(C)[C@@H]5CC[C@]43C)[C@@H]2C1 [Compound 63225, N-(((4aS,6aR,6bR,8aR,12aR,12bR,14aR,14bS)-11-cyano-2,2,6a,6b,9,9,12a-heptamethyl-10,14-dioxo-1,2,3,4,4a,5,6,6a,6b,7,8,8a,9,10,12a,12b,13,14,14a,14b-icosahydropicen-4a-yl)methyl)-2,2,2-trifluoroethanesulfonamide] | > 200 | 4 | 2.4 | 6.5 | –
